From patent US20240092784A1, “CONDENSED HETEROCYCLIC COMPOUND” (NISSAN CHEMICAL CORPORATION, priority 2020, published 2024)
Where a name gives a salt, the structure may show the parent alone.

Target: human SPR (Homo sapiens (Human), UniProt P35270)
Test: Evaluation Example 2: Measurement of human SPR inhibitory activity (seven concentrations, sepiapterin absorbance at 420 nm)
Assay type: biochemical
Conditions: Evaluation Example 2, seven concentrations 0.14 nM to 100 nM, 240 minutes at room temperature, read-out: IC50
Procedure, shortened: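 His-tagged full-length human SPR (1-261) was expressed in E. coli and the tag removed. Enzyme at 150 ng/mL in 100 mM Tris-HCl pH 7.5/0.01% BSA was mixed with compound (0.14–100 nM, seven points), 120 μM sepiapterin and 160 μM NADPH, both as added-solution concentrations. After 240 min at room temperature, remaining sepiapterin was read at 420 nm to give percent inhibition.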

Chain of human SPR (P35270 whole entry): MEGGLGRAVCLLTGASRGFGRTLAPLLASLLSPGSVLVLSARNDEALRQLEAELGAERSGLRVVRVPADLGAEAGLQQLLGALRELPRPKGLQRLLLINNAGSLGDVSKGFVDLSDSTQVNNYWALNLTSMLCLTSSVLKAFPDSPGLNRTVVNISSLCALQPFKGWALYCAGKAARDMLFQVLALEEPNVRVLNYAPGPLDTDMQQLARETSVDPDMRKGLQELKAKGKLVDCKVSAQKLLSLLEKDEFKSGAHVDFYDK

SMILES | IC50
CC(C)Cn1c(=O)c(C(=O)NC2CC2)c(O)n2nc(/N=C/N(C)C)cc12 [Synthesis Example 363, (E)-N-Cyclopropyl-2-(((dimethylamino)methylene)amino)-7-hydroxy-4-isobutyl-5-oxo-4,5-dihydropyrazolo[1,5-a]pyrimidine-6-carboxamide hydrochloride] | 1.61 nM
O=C(NC1CC1)c1c(O)n2ncc(/C=C/C(=O)N3CCOCC3)c2n(CC2(F)CC2)c1=O [Synthesis Example 364, (E)-N-Cyclopropyl-4-((1-fluorocyclopropyl)methyl)-7-hydroxy-3-(3-morpholino-3-oxoprop-1-en-1-yl)-5-oxo-4,5-dihydropyrazolo[1,5-a]pyrimidine-6-carboxamide] | 0.63 nM
COC(C)(C)Cn1c(=O)c(C(=O)NC2CC2)c(O)n2ncc(/C=C/C(=O)N3CCOCC3)c12 [Synthesis Example 365, (E)-N-Cyclopropyl-7-hydroxy-4-(2-methoxy-2-methylpropyl)-3-(3-morpholino-3-oxoprop-1-en-1-yl)-5-oxo-4,5-dihydropyrazolo[1,5-a]pyrimidine-6-carboxamide] | 0.65 nM
CC1(Cn2c(=O)c(C(=O)NC3CC3)c(O)n3ncc(/C=C/C(=O)N4CCOCC4)c23)CC1 [Synthesis Example 366, (E)-N-Cyclopropyl-7-hydroxy-4-((1-methylcyclopropyl)methyl)-3-(3-morpholino-3-oxoprop-1-en-1-yl)-5-oxo-4,5-dihydropyrazolo[1,5-a]pyrimidine-6-carboxamide] | 0.75 nM
CC1(Cn2c(=O)c(C(=O)NC3CC3)c(O)n3ncc(/C=C/C(=O)N4C5CCC4COC5)c23)CC1 [Synthesis Example 367, (E)-3-(3-(3-Oxa-8-azabicyclo[3.2.1]octan-8-yl)-3-oxoprop-1-en-1-yl)-N-cyclopropyl-7-hydroxy-4-((1-methylcyclopropyl)methyl)-5-oxo-4,5-dihydropyrazolo[1,5-a]pyrimidine-6-carboxamide] | 0.62 nM
CC1(Cn2c(=O)c(C(=O)NC3CC3)c(O)n3ncc(/C=C/C(=O)N4CC5CCC(C4)O5)c23)CC1 [Synthesis Example 368, (E)-3-(3-(8-Oxa-3-azabicyclo[3.2.1]octan-3-yl)-3-oxoprop-1-en-1-yl)-N-cyclopropyl-7-hydroxy-4-((1-methylcyclopropyl)methyl)-5-oxo-4,5-dihydropyrazolo[1,5-a]pyrimidine-6-carboxamide] | 0.61 nM
C[C@H]1COCCN1C(=O)/C=C/c1cnn2c(O)c(C(=O)NC3CC3)c(=O)n(CC3(C)CC3)c12 [Synthesis Example 369, (S,E)-N-Cyclopropyl-7-hydroxy-4-((1-methylcyclopropyl)methyl)-3-(3-(3-methylmorpholino)-3-oxoprop-1-en-1-yl)-5-oxo-4,5-dihydropyrazolo[1,5-a]pyrimidine-6-carboxamide] | 0.58 nM
C[C@@H]1COCCN1C(=O)/C=C/c1cnn2c(O)c(C(=O)NC3CC3)c(=O)n(CC3(C)CC3)c12 [Synthesis Example 370, (R,E)-N-Cyclopropyl-7-hydroxy-4-((1-methylcyclopropyl)methyl)-3-(3-(3-methylmorpholino)-3-oxoprop-1-en-1-yl)-5-oxo-4,5-dihydropyrazolo[1,5-a]pyrimidine-6-carboxamide] | 0.54 nM
COC[C@H]1COCCN1C(=O)/C=C/c1cnn2c(O)c(C(=O)NC3CC3)c(=O)n(CC3(C)CC3)c12 [Synthesis Example 371, (S,E)-N-Cyclopropyl-7-hydroxy-3-(3-(3-(methoxymethyl)morpholino)-3-oxoprop-1-en-1-yl)-4-((1-methylcyclopropyl)methyl)-5-oxo-4,5-dihydropyrazolo[1,5-a]pyrimidine-6-carboxamide] | 0.61 nM
COC[C@@H]1COCCN1C(=O)/C=C/c1cnn2c(O)c(C(=O)NC3CC3)c(=O)n(CC3(C)CC3)c12 [Synthesis Example 372, (R,E)-N-Cyclopropyl-7-hydroxy-3-(3-(3-(methoxymethyl)morpholino)-3-oxoprop-1-en-1-yl)-4-((1-methylcyclopropyl)methyl)-5-oxo-4,5-dihydropyrazolo[1,5-a]pyrimidine-6-carboxamide] | 0.55 nM
CC1(Cn2c(=O)c(C(=O)NC3CC3)c(O)n3ncc(/C=C/C(=O)N4C[C@H]5C[C@@H]4CO5)c23)CC1 [Synthesis Example 373] | 0.74 nM
CC1(Cn2c(=O)c(C(=O)NC3CC3)c(O)n3ncc(/C=C/C(=O)N4C[C@@H]5C[C@H]4CO5)c23)CC1 [Synthesis Example 374] | 0.65 nM
O=C(NC1CC1)c1c(O)n2ncc(/C=C/C(=O)N3C[C@@H]4C[C@H]3CO4)c2n(CC2(F)CC2)c1=O [Synthesis Example 375] | 0.65 nM
O=C(NC1CC1)c1c(O)n2ncc(/C=C/C(=O)N3C4CCC3COC4)c2n(CC2(F)CC2)c1=O [Synthesis Example 376, (E)-3-(3-(3-Oxa-8-azabicyclo[3.2.1]octan-8-yl)-3-oxoprop-1-en-1-yl)-N-cyclopropyl-4-((1-fluorocyclopropyl)methyl)-7-hydroxy-5-oxo-4,5-dihydropyrazolo[1,5-a]pyrimidine-6-carboxamide] | 0.72 nM
O=C(NC1CC1)c1c(O)n2ncc(/C=C/C(=O)N3C[C@H]4C[C@@H]3CO4)c2n(CC2(F)CC2)c1=O [Synthesis Example 377] | 0.78 nM
O=C(NC1CC1)c1c(O)n2ncc(/C=C/C(=O)N3CC4CCC(C3)O4)c2n(CC2(F)CC2)c1=O [Synthesis Example 378, (E)-3-(3-(8-Oxa-3-azabicyclo[3.2.1]octan-3-yl)-3-oxoprop-1-en-1-yl)-N-cyclopropyl-4-((1-fluorocyclopropyl)methyl)-7-hydroxy-5-oxo-4,5-dihydropyrazolo[1,5-a]pyrimidine-6-carboxamide] | 0.79 nM
C[C@H]1COCCN1C(=O)/C=C/c1cnn2c(O)c(C(=O)NC3CC3)c(=O)n(CC3(F)CC3)c12 [Synthesis Example 379, (S,E)-N-Cyclopropyl-4-((1-fluorocyclopropyl)methyl)-7-hydroxy-3-(3-(3-methylmorpholino)-3-oxoprop-1-en-1-yl)-5-oxo-4,5-dihydropyrazolo[1,5-a]pyrimidine-6-carboxamide] | 0.7 nM
C[C@@H]1COCCN1C(=O)/C=C/c1cnn2c(O)c(C(=O)NC3CC3)c(=O)n(CC3(F)CC3)c12 [Synthesis Example 380, (R,E)-N-Cyclopropyl-4-((1-fluorocyclopropyl)methyl)-7-hydroxy-3-(3-(3-methylmorpholino)-3-oxoprop-1-en-1-yl)-5-oxo-4,5-dihydropyrazolo[1,5-a]pyrimidine-6-carboxamide] | 0.76 nM
O=C(NC1CC1)c1c(O)n2ncc(/C=C/C(=O)N3CCOCC3)c2n(CC2CCC2)c1=O [Synthesis Example 381, (E)-4-(Cyclobutylmethyl)-N-cyclopropyl-7-hydroxy-3-(3-morpholino-3-oxoprop-1-en-1-yl)-5-oxo-4,5-dihydropyrazolo[1,5-a]pyrimidine-6-carboxamide] | 0.71 nM
COC[C@H]1COCCN1C(=O)/C=C/c1cnn2c(O)c(C(=O)NC3CC3)c(=O)n(CC3(F)CC3)c12 [Synthesis Example 382, (S,E)-N-cyclopropyl-4-((1-fluorocyclopropyl)methyl)-7-hydroxy-3-(3-(3-(methoxymethyl)morpholino)-3-oxoprop-1-en-1-yl)-5-oxo-4,5-dihydropyrazolo[1,5-a]pyrimidine-6-carboxamide] | 0.87 nM
COC[C@@H]1COCCN1C(=O)/C=C/c1cnn2c(O)c(C(=O)NC3CC3)c(=O)n(CC3(F)CC3)c12 [Synthesis Example 383, (R,E)-N-Cyclopropyl-4-((1-fluorocyclopropyl)methyl)-7-hydroxy-3-(3-(3-(methoxymethyl)morpholino)-3-oxoprop-1-en-1-yl)-5-oxo-4,5-dihydropyrazolo[1,5-a]pyrimidine-6-carboxamide] | 0.82 nM
CC1(Cn2c(=O)c(C(=O)NC3CC3)c(O)n3ncc(/C=C/C(=O)N4CCOCC4)c23)CCOCC1 [Synthesis Example 386, (E)-N-Cyclopropyl-7-hydroxy-4-((4-methyltetrahydro-2H-pyran-4-yl)methyl)-3-(3-morpholino-3-oxoprop-1-en-1-yl)-5-oxo-4,5-dihydropyrazolo[1,5-a]pyrimidine-6-carboxamide] | 0.6 nM
O=C(NC1CC1)c1c(O)n2ncc(/C=C/C(=O)N3CCOCC3)c2n(CC2CC2)c1=O [Synthesis Example 387, (E)-N-Cyclopropyl-4-(cyclopropylmethyl)-7-hydroxy-3-(3-morpholino-3-oxoprop-1-en-1-yl)-5-oxo-4,5-dihydropyrazolo[1,5-a]pyrimidine-6-carboxamide] | 0.86 nM
CC(C)(F)Cn1c(=O)c(C(=O)NC2CC2)c(O)n2ncc(/C=C/C(=O)N3CCOCC3)c12 [Synthesis Example 390, (E)-N-Cyclopropyl-4-(2-fluoro-2-methylpropyl)-7-hydroxy-3-(3-morpholino-3-oxoprop-1-en-1-yl)-5-oxo-4,5-dihydropyrazolo[1,5-a]pyrimidine-6-carboxamide] | 0.71 nM
CC(C)(C)Cn1c(=O)c(C(=O)NC2CC2)c(O)n2nc3ncccc3c12 [Synthesis Example 391, N-Cyclopropyl-4-hydroxy-1-neopentyl-2-oxo-1,2-dihydropyrido[2′,3′:3,4]pyrazolo[1,5-a]pyrimidine-3-carboxamide] | 0.92 nM
CC(C)(C)Cn1c(=O)c(C(=O)NC2CC2)c(O)n2nc3nccnc3c12 [Synthesis Example 392, N-Cyclopropyl-7-hydroxy-10-neopentyl-9-oxo-9,10-dihydropyrazino[2′,3′:3,4]pyrazolo[1,5-a]pyrimidine-8-carboxamide] | 1.5 nM
COc1ccc2c(n1)nn1c(O)c(C(=O)NC3CC3)c(=O)n(CC(C)(C)C)c21 [Synthesis Example 393, N-Cyclopropyl-4-hydroxy-8-methoxy-1-neopentyl-2-oxo-1,2-dihydropyrido[2′,3′:3,4]pyrazolo[1,5-a]pyrimidine-3-carboxamide] | 1.38 nM
